# Assay results taken from US9066948B2, “Oxadiazolo[3,2-a]pyrimidines and thiadiazolo[3,2-a]pyrimidines” (THE UNITED STATES OF AMERICA AS REPRESENTED BY THE …, priority 2010, dated 2015).
# Where two headings read alike, the source gives them in different places.
# Experiments:
# [1] = tested on: washed platelets; experiment: Effect of Mg2+ on washed platelet aggregation induced by thrombin receptor activating peptide (SFLLRN); format: cell-based, human; conditions: compound at 1 μM; SFLLRN 10 μM
# Protocol: Washed platelets are resuspended in buffer containing fibrinogen (200 μg/ml) and 1 mM […] in combination with either 1 mM or 20 mM Mg^2+. Aggregation is induced by adding a thrombin receptor activating peptide (SFLLRN) at 10 μM.
# [2] = molecular target: T1, HEK293 cells stably expressing normal human αIIbβ3 (Homo sapiens, UniProt P05106+P08514); experiment: αIIbβ3-mediated cell adhesion to fibrinogen; format: cell-based; conditions: same concentration as αVβ3 experiments (10 μM), n=4
# T1 construct: expressed in transfected cells; host or cells: HEK293
# T1 sequence (P08514 32-887 limits assumed): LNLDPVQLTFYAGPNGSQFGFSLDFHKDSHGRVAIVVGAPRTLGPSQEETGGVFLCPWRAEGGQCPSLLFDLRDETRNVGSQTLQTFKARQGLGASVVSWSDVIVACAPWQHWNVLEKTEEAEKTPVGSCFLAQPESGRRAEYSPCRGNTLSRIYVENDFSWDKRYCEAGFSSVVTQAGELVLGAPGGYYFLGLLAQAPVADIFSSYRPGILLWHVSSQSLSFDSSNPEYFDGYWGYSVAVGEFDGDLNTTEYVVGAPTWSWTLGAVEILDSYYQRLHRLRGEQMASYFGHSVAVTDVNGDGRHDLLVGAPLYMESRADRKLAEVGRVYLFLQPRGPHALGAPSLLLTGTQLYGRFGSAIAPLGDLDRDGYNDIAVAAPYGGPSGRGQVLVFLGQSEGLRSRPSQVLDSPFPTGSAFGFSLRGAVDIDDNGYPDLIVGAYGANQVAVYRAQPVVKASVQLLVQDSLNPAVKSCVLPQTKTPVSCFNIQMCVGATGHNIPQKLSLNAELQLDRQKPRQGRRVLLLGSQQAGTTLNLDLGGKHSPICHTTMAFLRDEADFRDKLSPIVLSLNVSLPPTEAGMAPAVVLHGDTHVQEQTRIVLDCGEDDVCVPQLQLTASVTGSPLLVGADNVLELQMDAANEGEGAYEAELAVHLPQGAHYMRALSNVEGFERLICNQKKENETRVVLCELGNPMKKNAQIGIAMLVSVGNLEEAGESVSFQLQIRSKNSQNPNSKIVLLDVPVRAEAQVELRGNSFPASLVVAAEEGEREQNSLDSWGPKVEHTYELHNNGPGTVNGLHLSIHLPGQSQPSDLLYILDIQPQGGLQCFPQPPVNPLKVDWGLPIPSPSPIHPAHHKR
# T1 sequence (P08514 891-1039 partner limits assumed): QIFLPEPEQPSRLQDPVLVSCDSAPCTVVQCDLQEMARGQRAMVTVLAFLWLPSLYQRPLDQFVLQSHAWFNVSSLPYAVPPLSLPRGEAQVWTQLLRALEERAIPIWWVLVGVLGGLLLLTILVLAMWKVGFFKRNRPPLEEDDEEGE
# T1 sequence (P05106 27-788): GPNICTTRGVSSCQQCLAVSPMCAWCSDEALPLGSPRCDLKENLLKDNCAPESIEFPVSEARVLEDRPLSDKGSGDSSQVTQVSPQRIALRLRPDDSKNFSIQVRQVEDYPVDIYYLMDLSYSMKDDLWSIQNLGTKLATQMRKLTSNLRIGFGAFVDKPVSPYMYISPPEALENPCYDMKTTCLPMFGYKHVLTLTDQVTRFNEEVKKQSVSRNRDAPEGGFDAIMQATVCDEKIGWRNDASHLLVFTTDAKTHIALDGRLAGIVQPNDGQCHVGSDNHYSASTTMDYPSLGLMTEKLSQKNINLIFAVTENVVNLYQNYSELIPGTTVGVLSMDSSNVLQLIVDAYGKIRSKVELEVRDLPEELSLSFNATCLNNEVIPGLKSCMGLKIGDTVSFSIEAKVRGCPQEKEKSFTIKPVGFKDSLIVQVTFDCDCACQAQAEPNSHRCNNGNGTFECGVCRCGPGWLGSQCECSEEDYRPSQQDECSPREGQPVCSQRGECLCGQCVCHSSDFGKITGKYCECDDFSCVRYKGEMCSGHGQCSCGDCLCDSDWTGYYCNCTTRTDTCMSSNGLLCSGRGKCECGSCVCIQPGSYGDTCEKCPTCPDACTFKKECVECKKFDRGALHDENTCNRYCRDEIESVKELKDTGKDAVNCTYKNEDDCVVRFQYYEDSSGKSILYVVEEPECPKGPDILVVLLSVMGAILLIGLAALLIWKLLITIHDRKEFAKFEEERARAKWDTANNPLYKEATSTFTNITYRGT
# Protocol: Washed platelets are prepared as per the primary screening assay, suspended in HBMT containing 1 mM MgCl2 (platelet adhesion to collagen) or 2 mM CaCl2/1 mM MgCl2 (platelet adhesion to fibrinogen) and adjusted to a count of 250×10^9/L. HEK293 cells stably expressing normal human αVβ3 or normal human αIIbβ3 are suspended in HBMT containing either 1 mM MgCl2 (HEK293 cells expressing αVβ3 for adhesion to vitronectin) or 2 mM CaCl2/1 mM MgCl2 (HEK293 cells expressing αIIbβ3 for adhesion to fibrinogen); the cell counts are adjusted to 10^6/mL. Polystyrene 96-well microtiter plates (Nunc) are coated with either fibrinogen (50 μg/mL), vitronectin (5 μg/mL), or collagen (33 μg/mL, rat tail type 1; Becton Dickinson) for 1 hour, and blocked with HBMT for at least 1 hour. Platelets and cells are treated with the compound of Example 27 of the current invention or 2-ethyl-7-(piperazin-1-yl)-5H-[1,3,4]thiadiazolo-[3,2-a]pyrimidin-5-one of U.S. Ser. No. 12/514,286 in the presence or absence of anti-α2β1 mAb 6F1, anti-αIIbβ3 mAb 10E5, anti-αIIbβ3 mAb 10E5+αVβ3 mAb 7E3, αVβ3-specific mAb LM609, or anti-αVβ3+αIIbβ3 mAb 7E3, for 15 minutes at 37° C. before being added to the microtiter wells. After adhering for 1 hour at either 22° C. (platelets) or 37° C. […]
# [3] = molecular target: T2, purified αIIbβ3 (Homo sapiens, UniProt P05106+P08514); experiment: Extension of purified αIIbβ3 in nanodiscs by negative staining electron microscopy; conditions: concentrations up to 10 μM
# T2 construct: αIIbβ3 is purified from outdated single donor platelet concentrates obtained from the New York Blood Center; tissue New York Blood Center; host or cells: outdated single donor platelet concentrates
# T2 sequence (P08514 32-887 limits assumed): as the sequence (P08514 32-887 limits assumed) above
# T2 sequence (P08514 891-1039 partner limits assumed): as the sequence (P08514 891-1039 partner limits assumed) above
# T2 sequence (P05106 27-788): as the sequence (P05106 27-788) above
# Protocol: In brief, the His-tagged membrane scaffold protein is prepared as a recombinant protein in E. coli and purified by Nickel affinity chromatography and anion exchange chromatography. Final assembly consists of solubilizing an equimolar mixture of 1,2-dimyristoyl-sn-glycero-3-phosphocholine and 1,2-dimyristoyl-sn-glycero-3-phospho-(1′-rac-glycerol) in octylglucoside and cholate and then adding the purified αIIbβ3. The detergents are removed with macroporous polymeric beads (Bio-Bead SM-2) and then the αIIbβ3 nanodiscs are separated from the empty nanodiscs by gel filtration.
# αIIbβ3 nanodiscs are treated with eptifibatide, tirofiban, 2-ethyl-7-(piperazin-1-yl)-5H-[1,3,4]thiadiazolo-[3,2-a]pyrimidin-5-one of U.S. Ser. No. 12/514,286, or the compound of Example 27 of the current invention for 1 hour at room temperature at concentrations up to 100 μM for 2-ethyl-7-(piperazin-1-yl)-5H-[1,3,4]thiadiazolo-[3,2-a]pyrimidin-5-one (a compound claimed in U.S. Ser. No. 12/514,286) and at concentrations up to 10 μM for 2-amino-N-(3-(5-oxo-7-(piperazin-1-yl)-5H-[1,3,4]thiadiazolo[3,2-a]pyrimidin-2-yl)phenyl)acetamide of Example 27. Samples are loaded onto carbon-coated copper grids that are glow-discharged by a carbon coating unit (Edwards; Crowley, UK), and then stained with 2% uranyl acetate, followed by drying. Imaging of αIIbβ3 nanodiscs is performed using a JOEL JEM 100CX transmission electron microscope (Jeol Ltd; Tokyo, Japan) at 80 kV and magnifications of 33,000× and 50,000×. Individual nanodiscs containing αIIbβ3 are manually selected for analysis using Image J (NIH, Bethesda, Md.). The distance from the bottom of the nanodisc to the height of the αIIbβ3 complex (nanodisc-integrin length; NIL) is measured as an indicator of integrin extension. The frequency distribution of NIL values is then analyzed for untreated αIIbβ3 nanodiscs and αIIbβ3 nanodiscs in the presence of different compounds.
# [4] = tested on: WT mouse platelets; experiment: ADP-induced platelet aggregation, mouse PRP (Example 45); format: cell-based
# Protocol: Blood may be drawn via cardiac puncture from anesthetized Sprague Dawley rats (Taconic, Hudson, N.Y.), WT C57B1/6 mice (Jackson Laboratories, Bar Harbor, Me.), and mice expressing hαIIb/mβ3 and diluted 1:1 with a mixture of 4 parts 0.165 […], pH 7.4 containing 2 mM CaCl2 and 1 mM MgCl2. Blood from consenting human volunteers is obtained from a peripheral vein using a 19 gauge needle and anticoagulated with 1:10 vol 3.8% sodium citrate. Platelet-rich plasma (PRP) may be isolated by centrifugation at 22° C. at 350 g for 10 minutes (rats); 250 g for 2.5 minutes (mice); or 650 g for 4 minutes (human). Mouse PRP samples may be adjusted to 400,000 platelets/μl with the buffer used for dilution and human PRP may be adjusted to 300,000 platelets/μl with platelet-poor plasma. […] Platelet aggregation may be induced by adding to PRP adenosine diphosphate (ADP) at 30 μM (rats and WT mice), 20 or 30 μM (hαIIb/mβ3 mice), or 5 μM (humans), and light transmission may be measured over time in an aggregometer (Kowa AG-10E, Tokyo, Japan) with stirring. Percent inhibition may be calculated by comparing the initial slope of untreated samples to the samples treated with the Compounds of the Invention.
# [5] = tested on: platelets; experiment: Platelet aggregation assay: ADP-induced, platelet-rich plasma; format: cell-based, human; conditions: for IC50: Homo sapiens, Platelet, n=4
# Protocol: […] After 30 seconds in the aggregometer (Kowa AF-10E; Tokyo, Japan) at 37° C. with stirring, ADP (5-20 μM) is added to induce aggregation and the light transmittance is measured for 8 minutes. The initial slopes of aggregation in the presence of different concentrations of the Compound being tested are used to generate an IC50.
smiles,measurement,setting,value
"NCC(=O)Nc1cccc(-c2nn3c(=O)cc(N4CCNCC4)nc3s2)c1 [Example 27, 2-amino-N-(3-(5-oxo-7-(piperazin-1-yl)-5H-[1,3,4]thiadiazolo[3,2-a]pyrimidin-2-yl)phenyl)acetamide]",effect of Mg2+ on the inhibition of SFLLRN-induced platelet aggregation,[1],clearly attenuated at 20 mM Mg^2+
same,inhibition at 10 µM,[2],65 ± 5%
same,shift of nanodisc-integrin length (NIL) values / receptor extension,[3],do not induce receptor extension
same,selectivity for human compared to mouse or rat αIIbβ3,[4],selective for human WIND compared to mouse or rat αIIbβ3
same,inhibition of mouse platelet aggregation induced by ADP,[4]; 1 μM,does not inhibit either mouse or rat platelet aggregation
same,"potency in inhibiting platelet aggregation relative to 2-ethyl-7-(piperazin-1-yl)-5H-[1,3,4]thiadiazolo-[3,2-a]pyrimidin-5-one",[5],more than one hundred-fold more potent
same,IC50,"[5]; PPACK instead of citrate, read-out: IC50, ADP-induced platelet aggregation with PPACK as anticoagulant",220 nM
same,IC50,"[5]; citrate anticoagulant, read-out: IC50, ADP-induced platelet aggregation of citrated PRP",90 ± 20 nM
same,IC50 with PPACK relative to citrate,[5]; PPACK vs citrate,~3 fold
